Test results as given in ChEMBL document CHEMBL1201862, “PubChem BioAssay data set” (2004).
Calls of active or inactive are those of the source.

Assays:
[1] = target: T1, Streptokinase A (Streptococcus pyogenes serotype M1, UniProt P10520); test: viability-normalized secreted streptokinase activity reduction – plasminogen activation absorbance, OD405, dose response (AID 1914); type: functional, Streptococcus pyogenes M1 GAS;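 also: secreted streptokinase activity via plasminogen activation per viability signal from cell pellet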
T1 sequence (P10520 whole entry): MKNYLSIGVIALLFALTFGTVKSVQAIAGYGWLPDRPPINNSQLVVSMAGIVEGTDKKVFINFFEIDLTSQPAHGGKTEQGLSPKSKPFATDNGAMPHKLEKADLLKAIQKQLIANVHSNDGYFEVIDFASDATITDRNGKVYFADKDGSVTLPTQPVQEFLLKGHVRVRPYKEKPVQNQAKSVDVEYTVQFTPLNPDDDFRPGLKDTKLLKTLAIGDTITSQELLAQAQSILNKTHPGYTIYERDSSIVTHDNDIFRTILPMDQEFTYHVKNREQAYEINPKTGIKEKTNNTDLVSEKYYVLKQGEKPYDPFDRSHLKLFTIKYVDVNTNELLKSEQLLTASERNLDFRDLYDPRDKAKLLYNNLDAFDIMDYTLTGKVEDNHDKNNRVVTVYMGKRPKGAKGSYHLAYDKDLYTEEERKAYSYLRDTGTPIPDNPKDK

[2] = A Cell Based Secondary Assay To Explore Cytotoxicity of Compounds that Sensitize Mycobacterium Tuberculosis to Beta-Lactam Antibiotics.; type: functional
[3] = test system: Streptococcus; test: GAS UMAA2166 growth inhibition – luminescence, BacTiterGlo, counter-screen for streptokinase expression inhibitor project, dose response (AID 1915); type: functional, organism-based;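 also: potency for reduction of bacterial viability or growth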
[4] = test system: Streptococcus sp. 'group A'; test: Streptococcus pyogenes SK(-)GAS viability under kanamycin – luminescence, BacTiterGlo, confirmation, counter-screen for streptokinase expression inhibitor project, dose response (AID 1900); type: functional, organism-based
[5] = target: Beta-galactosidase (Escherichia coli, UniProt Q8VNN2); test: detection-enzyme interference by beta-gal modulators – biochemical, E. coli enzyme, set 3, artefact control for CCR6 antagonist project, dose response (AID 504712); type: functional
[6] = target: T2, Bcl-2-like protein 10 (Homo sapiens, UniProt Q9HD36); test: Bcl-B/TR3 peptide binding disruption – biochemical, fluorescence polarization, FITC-TR3 peptide, selectivity assay for Bfl-1 inhibitor project, primary screen (AID 748);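 also: fluorescence polarization from a fluorescein-labelled TR3 peptide binding purified Bcl-B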
T2 sequence (Q9HD36 whole entry): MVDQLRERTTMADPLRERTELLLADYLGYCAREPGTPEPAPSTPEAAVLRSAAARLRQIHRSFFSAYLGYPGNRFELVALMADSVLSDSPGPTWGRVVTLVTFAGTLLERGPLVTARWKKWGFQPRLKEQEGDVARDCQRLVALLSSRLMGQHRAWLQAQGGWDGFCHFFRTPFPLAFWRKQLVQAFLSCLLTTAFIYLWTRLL

[7] = target: T3, Rac GTPase-activating protein 1 (Homo sapiens, UniProt Q9H0H5); test: blockers of MgcRacGAP-driven Rac1 GTP hydrolysis – biochemical, ADP Hunter fluorescence, primary and confirmatory, confirmation (AID 624330); type: functional
T3 sequence (Q9H0H5 whole entry): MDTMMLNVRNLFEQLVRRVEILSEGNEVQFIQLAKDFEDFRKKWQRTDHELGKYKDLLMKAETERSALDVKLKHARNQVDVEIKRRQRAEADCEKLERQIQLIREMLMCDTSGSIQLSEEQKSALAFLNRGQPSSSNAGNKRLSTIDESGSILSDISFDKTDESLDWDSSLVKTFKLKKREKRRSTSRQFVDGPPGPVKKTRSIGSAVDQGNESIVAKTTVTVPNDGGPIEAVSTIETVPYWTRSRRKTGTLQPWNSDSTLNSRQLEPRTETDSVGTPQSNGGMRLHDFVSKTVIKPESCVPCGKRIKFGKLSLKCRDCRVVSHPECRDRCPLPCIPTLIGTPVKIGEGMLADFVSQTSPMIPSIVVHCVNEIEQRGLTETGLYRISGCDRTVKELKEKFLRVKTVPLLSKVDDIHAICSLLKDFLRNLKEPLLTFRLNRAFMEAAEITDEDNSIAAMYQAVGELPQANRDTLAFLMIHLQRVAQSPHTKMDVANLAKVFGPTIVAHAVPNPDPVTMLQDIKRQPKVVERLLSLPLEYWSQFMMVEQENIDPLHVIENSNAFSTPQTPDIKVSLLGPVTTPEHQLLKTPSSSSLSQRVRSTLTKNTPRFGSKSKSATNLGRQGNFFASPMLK

[8] = target: T4, Protein skinhead-1 (Caenorhabditis elegans, UniProt P34707); type: functional
T4 sequence (P34707 whole entry): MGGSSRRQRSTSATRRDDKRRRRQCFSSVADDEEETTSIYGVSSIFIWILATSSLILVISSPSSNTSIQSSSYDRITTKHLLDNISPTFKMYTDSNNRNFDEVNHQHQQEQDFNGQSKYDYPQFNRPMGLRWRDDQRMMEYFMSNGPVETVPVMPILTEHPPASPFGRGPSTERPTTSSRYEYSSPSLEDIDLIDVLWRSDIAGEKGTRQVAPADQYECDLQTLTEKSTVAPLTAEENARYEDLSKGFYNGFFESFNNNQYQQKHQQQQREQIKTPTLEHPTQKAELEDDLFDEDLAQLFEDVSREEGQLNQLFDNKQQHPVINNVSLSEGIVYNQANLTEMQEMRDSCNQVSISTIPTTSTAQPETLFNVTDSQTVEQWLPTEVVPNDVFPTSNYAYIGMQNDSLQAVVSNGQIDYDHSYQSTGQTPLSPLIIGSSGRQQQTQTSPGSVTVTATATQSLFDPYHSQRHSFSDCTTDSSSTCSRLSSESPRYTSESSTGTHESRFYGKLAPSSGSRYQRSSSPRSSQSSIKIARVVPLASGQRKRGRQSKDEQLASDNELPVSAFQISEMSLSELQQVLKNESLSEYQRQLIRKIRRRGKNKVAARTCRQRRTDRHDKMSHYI

[9] = target: T5, Tyrosine-protein phosphatase non-receptor type 7 (Homo sapiens, UniProt P35236); test: redox-active compounds inhibiting HePTP phosphatase – biochemical, fluorescence, mechanism study (AID 2068); type: functional
T5 sequence (P35236 whole entry): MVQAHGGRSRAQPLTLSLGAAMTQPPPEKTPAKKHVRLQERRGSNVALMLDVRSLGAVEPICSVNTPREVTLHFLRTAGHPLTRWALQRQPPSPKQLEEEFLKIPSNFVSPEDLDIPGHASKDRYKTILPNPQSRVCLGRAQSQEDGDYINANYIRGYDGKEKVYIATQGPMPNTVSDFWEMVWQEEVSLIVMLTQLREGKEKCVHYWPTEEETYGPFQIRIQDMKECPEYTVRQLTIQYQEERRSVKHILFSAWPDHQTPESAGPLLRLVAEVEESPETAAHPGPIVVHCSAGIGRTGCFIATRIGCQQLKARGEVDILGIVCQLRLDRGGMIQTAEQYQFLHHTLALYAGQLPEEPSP

[10] = target: T6, Aminopeptidase N (Plasmodium falciparum FcB1/Columbia, UniProt O96935); test: malaria alanyl aminopeptidase activity blockers – biochemical, fluorogenic H-Leu-NHMec substrate, 1536-well (AID 1445); parameters: species or system Plasmodium falciparum 3D7, 3D7
T6 sequence (O96935 whole entry): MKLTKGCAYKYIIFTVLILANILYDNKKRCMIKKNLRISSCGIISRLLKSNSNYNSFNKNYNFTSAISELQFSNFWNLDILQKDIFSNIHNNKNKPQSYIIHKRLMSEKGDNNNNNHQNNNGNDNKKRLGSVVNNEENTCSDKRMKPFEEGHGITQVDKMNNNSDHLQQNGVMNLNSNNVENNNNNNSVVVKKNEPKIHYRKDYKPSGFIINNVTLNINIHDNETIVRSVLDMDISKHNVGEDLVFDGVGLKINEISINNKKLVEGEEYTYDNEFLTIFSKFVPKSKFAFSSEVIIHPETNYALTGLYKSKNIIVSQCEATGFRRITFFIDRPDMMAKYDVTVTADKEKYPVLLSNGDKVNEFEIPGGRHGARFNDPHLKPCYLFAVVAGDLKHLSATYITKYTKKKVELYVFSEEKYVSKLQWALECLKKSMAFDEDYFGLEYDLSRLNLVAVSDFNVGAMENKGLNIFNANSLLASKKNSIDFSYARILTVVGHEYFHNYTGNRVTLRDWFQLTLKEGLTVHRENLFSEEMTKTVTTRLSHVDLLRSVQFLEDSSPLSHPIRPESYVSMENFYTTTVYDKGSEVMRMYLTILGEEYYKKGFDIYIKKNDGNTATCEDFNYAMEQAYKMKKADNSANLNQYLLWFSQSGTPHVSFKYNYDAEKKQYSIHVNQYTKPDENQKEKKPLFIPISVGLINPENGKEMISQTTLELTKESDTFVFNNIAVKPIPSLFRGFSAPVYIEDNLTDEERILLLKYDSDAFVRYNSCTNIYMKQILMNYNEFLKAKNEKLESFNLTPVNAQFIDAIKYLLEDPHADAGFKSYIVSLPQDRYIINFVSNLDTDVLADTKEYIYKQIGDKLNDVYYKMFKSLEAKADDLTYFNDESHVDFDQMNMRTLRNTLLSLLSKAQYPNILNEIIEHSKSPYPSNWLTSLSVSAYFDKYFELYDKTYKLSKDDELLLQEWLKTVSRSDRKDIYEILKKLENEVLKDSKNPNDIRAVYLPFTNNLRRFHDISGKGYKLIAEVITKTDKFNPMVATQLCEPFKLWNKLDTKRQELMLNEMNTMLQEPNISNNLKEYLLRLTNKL

Sequence of Beta-galactosidase (Q8VNN2 whole entry): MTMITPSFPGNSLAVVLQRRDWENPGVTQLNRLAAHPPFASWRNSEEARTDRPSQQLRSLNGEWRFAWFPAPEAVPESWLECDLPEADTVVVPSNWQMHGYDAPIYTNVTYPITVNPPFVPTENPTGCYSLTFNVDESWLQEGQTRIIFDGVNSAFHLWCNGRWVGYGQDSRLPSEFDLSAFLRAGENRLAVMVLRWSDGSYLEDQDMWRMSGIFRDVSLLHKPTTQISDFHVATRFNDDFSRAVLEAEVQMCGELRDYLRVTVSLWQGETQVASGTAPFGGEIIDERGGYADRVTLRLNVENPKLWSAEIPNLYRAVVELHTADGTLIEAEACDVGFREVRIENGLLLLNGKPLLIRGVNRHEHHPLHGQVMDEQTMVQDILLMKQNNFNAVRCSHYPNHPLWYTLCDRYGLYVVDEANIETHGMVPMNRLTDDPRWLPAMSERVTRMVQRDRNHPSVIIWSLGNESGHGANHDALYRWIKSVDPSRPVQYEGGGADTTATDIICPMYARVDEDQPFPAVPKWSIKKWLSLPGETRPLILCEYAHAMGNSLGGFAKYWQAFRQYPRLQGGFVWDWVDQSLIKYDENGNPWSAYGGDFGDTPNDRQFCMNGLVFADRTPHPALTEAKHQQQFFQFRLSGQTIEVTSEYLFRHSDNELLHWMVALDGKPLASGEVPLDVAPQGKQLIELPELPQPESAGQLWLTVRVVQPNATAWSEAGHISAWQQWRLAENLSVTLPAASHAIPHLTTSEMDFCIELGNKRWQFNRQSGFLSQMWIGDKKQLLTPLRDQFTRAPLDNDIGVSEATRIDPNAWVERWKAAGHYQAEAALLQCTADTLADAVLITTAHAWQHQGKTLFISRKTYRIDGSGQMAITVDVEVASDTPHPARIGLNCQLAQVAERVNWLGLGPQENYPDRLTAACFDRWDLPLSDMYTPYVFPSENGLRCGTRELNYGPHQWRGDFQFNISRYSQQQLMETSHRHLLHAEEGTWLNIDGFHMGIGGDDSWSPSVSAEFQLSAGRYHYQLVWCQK

Cc1cccc(NC(=O)c2nc[nH]c2C(=O)N[C@@H](CC(C)C)C(=O)OCc2ccccc2)c1
EC50 [1]: > 150 µM (not active) | CC50 [2]: 22.4 µM (active) | EC50 [3]: 3.95 µM (active) | EC50 [4]: 2.12 µM (active)

O=C1CC(Sc2nnnn2C2CCCCC2)C(=O)N1c1ccccc1 (stereo unspecified)
IC50 [5]: > 66.6 µM (inactive)

Nc1ccc(N2CCN(C(=O)c3cccs3)CC2)cc1
IC50 [6]: > 100 µM (inactive) | IC50 [7]: 19 µM (active) | IC50 [8]: > 100 µM (inactive)

O=C(/C=C/c1ccccc1[N+](=O)[O-])c1ccc(F)cc1
CC50 [2]: > 40 µM (active)

COc1cccc(NC(=O)Nc2ccc3nc(-c4ccco4)c(-c4ccco4)nc3c2)c1
IC50 [9]: 1.09 µM (active)

COc1ccc(Br)cc1/C=N/NC(=O)CNC(=O)c1cccnc1
IC50 [10]: 27.2 µM (active)
